Measurements taken from US20170072024A1, “ANTIMICROBIAL COMPOSITION COMPRISING A CARBOHYDRATE, GLUCOSE OXIDASE AND ZINC OXIDE” (MELIPHARM, priority 2014, published 2017).

Columns and labels:
P. aeruginosa = test: Bacterial proliferation test, 96 well microplate (OD 450 nm, 24 h); type: cell-based; conditions: positive control = 100% proliferation
Procedure: (§1) The microbial strains used for the tests are the following bacteria: • P. aeruginosa • S. aureus The tests were conducted on microplates to evaluate the MIC (Minimum Inhibitory Concentration). […] Each well is inoculated with 50 μL of bacterial suspension to be tested in a Muller-Hinton (MH) broth+150 μL of diluted test product solution. […] Each specimen is tested in triplicate. The optical densities (OD) are read a first time at time 0 (T0) at 450 nm. The plates are then incubated for 24 h at 37° C. with agitation. At the end of incubation, the OD is measured again at 450 nm (T24). The proliferation percentage is calculated as follows: Proliferation=(DOT24−DOT0)/(DOT24Control+−DOT0Control+)

S. aureus = test: as above; type: cell-based; conditions: positive control = 100% proliferation
Procedure: as §1

Compound	proliferation percentage of P aeruginosa (P. aeruginosa; formula at 1.5% (v/v)) [%]	proliferation percentage of P aeruginosa (P. aeruginosa; formula at 3% (v/v)) [%]	proliferation percentage of P aeruginosa (P. aeruginosa; formula at 6% (v/v)) [%]	proliferation percentage of P aeruginosa (P. aeruginosa; formula at 9% (v/v)) [%]	proliferation percentage of S. aureus (S. aureus; formula at 1.5% (v/v)) [%]	proliferation percentage of S. aureus (S. aureus; formula at 3% (v/v)) [%]	proliferation percentage of S. aureus (S. aureus; formula at 6% (v/v)) [%]	proliferation percentage of S. aureus (S. aureus; formula at 9% (v/v)) [%]
glucose oxidase [Formula 8]	96	96	91	86	81	72	54	46
O=C[C@H](O)[C@@H](O)[C@H](O)[C@H](O)CO [Formula 9, glucose]	100	206	206	113	96	86	83	72
